How the values were obtained:
Assay type in all cases: in vivo
Alopecurus myosuroides = assay: Post-emergence herbicidal action against ALOMY; details: visual rating about 3 weeks after treatment
How it was run: (§1)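 Post-emergence application onto green parts at the one-leaf stage, 2 to 3 weeks after sowing in sandy loam. Spray carried 0.5% additive at a water rate of 600 l/ha. Percent activity assessed by eye at about 3 weeks, where 100% means plants died and 0% matches controls.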

Avena fatua = assay: Post-emergence herbicidal action against AVEFA; details: visual rating about 3 weeks after treatment
How it was run: as §1

DIGSA = assay: Post-emergence herbicidal action against DIGSA; details: visual rating about 3 weeks after treatment
How it was run: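 Greenhouse-grown plants sprayed at one-leaf stage (2–3 weeks after sowing) with WP or EC formulations as aqueous suspension/emulsion plus 0.5% additive, 600 l/ha water. Activity rated visually about 3 weeks later versus untreated controls, 100% = plants dead, 0% = like controls.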

Echinochloa crus-galli = assay: Post-emergence herbicidal action against ECHCG; details: visual rating about 3 weeks after treatment
How it was run: as §1

Lolium rigidum = assay: Post-emergence herbicidal action against LOLRI; details: visual rating about 3 weeks after treatment
How it was run: as §1

Setaria viridis = assay: Post-emergence herbicidal action against SETVI; details: visual rating about 3 weeks after treatment
How it was run: as §1

Abutilon theophrasti = assay: Post-emergence herbicidal action against ABUTH; details: visual rating about 3 weeks after treatment
How it was run: as §1

Amaranthus retroflexus = assay: Post-emergence herbicidal action against AMARE
How it was run: as §1

Matricaria inodora = assay: Post-emergence herbicidal action against MATIN
How it was run: as §1

Pharbitis purpurea = assay: Post-emergence herbicidal action against PHBPU
How it was run: as §1

Polygonum convolvulus = assay: Post-emergence herbicidal action against POLCO
How it was run: as §1

Stellaria media = assay: Post-emergence herbicidal action against STEME
How it was run: as §1

Viola tricolor = assay: Post-emergence herbicidal action against VIOTR
How it was run: as §1

Veronica persica = assay: Post-emergence herbicidal action against VERPE
How it was run: as §1

Hordeum murinum = assay: Post-emergence herbicidal action against HORMU
How it was run: as §1

[1] = 80 g a.i./ha, visual rating about 3 weeks after treatment

CSCCOC(=O)C1C=CC(NC(=O)C2(C(F)(F)F)CC(c3cc(F)cc(C#N)c3)=NO2)C1 (mixture of isomers) [Example I-38]
100%: Herbicidal action against [%] STEME (Stellaria media; 20 g a.i./ha) | Herbicidal action against [%] STEME (Stellaria media; 80 g a.i./ha) | Herbicidal action against [%] VIOTR (Viola tricolor; 20 g a.i./ha)
80%: Herbicidal action against [%] ALOMY (Alopecurus myosuroides; 20 g a.i./ha) | Herbicidal action against [%] AMARE (Amaranthus retroflexus; 20 g a.i./ha) | Herbicidal action against [%] AMARE (Amaranthus retroflexus; [1]) | Herbicidal action against [%] MATIN (Matricaria inodora; [1]) | Herbicidal action against [%] VIOTR (Viola tricolor; 80 g a.i./ha) | Herbicidal action against [%] HORMU (Hordeum murinum; 20 g a.i./ha) | Herbicidal action against [%] HORMU (Hordeum murinum; 80 g a.i./ha)
90%: Herbicidal action against [%] ALOMY (Alopecurus myosuroides; 80 g a.i./ha) | Herbicidal action against [%] AVEFA (Avena fatua; 20 g a.i./ha) | Herbicidal action against [%] AVEFA (Avena fatua; 80 g a.i./ha) | Herbicidal action against [%] DIGSA (DIGSA; 20 g a.i./ha) | Herbicidal action against [%] DIGSA (DIGSA; 80 g a.i./ha) | Herbicidal action against [%] ECHCG (Echinochloa crus-galli; 20 g a.i./ha) | Herbicidal action against [%] ECHCG (Echinochloa crus-galli; 80 g a.i./ha) | Herbicidal action against [%] LOLRI (Lolium rigidum; 20 g a.i./ha) | Herbicidal action against [%] LOLRI (Lolium rigidum; 80 g a.i./ha) | Herbicidal action against [%] SETVI (Setaria viridis; 20 g a.i./ha) | Herbicidal action against [%] SETVI (Setaria viridis; 80 g a.i./ha) | Herbicidal action against [%] ABUTH (Abutilon theophrasti; 20 g a.i./ha) | Herbicidal action against [%] ABUTH (Abutilon theophrasti; 80 g a.i./ha) | Herbicidal action against [%] PHBPU (Pharbitis purpurea; 80 g a.i./ha) | Herbicidal action against [%] POLCO (Polygonum convolvulus; 20 g a.i./ha) | Herbicidal action against [%] POLCO (Polygonum convolvulus; 80 g a.i./ha) | Herbicidal action against [%] VERPE (Veronica persica; 20 g a.i./ha) | Herbicidal action against [%] VERPE (Veronica persica; 80 g a.i./ha)

CSCCOC(=O)C1C=CC(NC(=O)C2(C(F)(F)F)CC(c3cc(F)cc(F)c3)=NO2)C1 (centres unmarked) [Example I-17]
90%: Herbicidal action against [%] ALOMY (Alopecurus myosuroides; 20 g a.i./ha) | Herbicidal action against [%] ALOMY (Alopecurus myosuroides; 80 g a.i./ha) | Herbicidal action against [%] DIGSA (DIGSA; 20 g a.i./ha) | Herbicidal action against [%] DIGSA (DIGSA; 80 g a.i./ha) | Herbicidal action against [%] ECHCG (Echinochloa crus-galli; 80 g a.i./ha) | Herbicidal action against [%] STEME (Stellaria media; 80 g a.i./ha) | Herbicidal action against [%] HORMU (Hordeum murinum; 20 g a.i./ha) | Herbicidal action against [%] HORMU (Hordeum murinum; 80 g a.i./ha)
80%: Herbicidal action against [%] ECHCG (Echinochloa crus-galli; 20 g a.i./ha) | Herbicidal action against [%] SETVI (Setaria viridis; 20 g a.i./ha) | Herbicidal action against [%] SETVI (Setaria viridis; 80 g a.i./ha) | Herbicidal action against [%] ABUTH (Abutilon theophrasti; 20 g a.i./ha) | Herbicidal action against [%] ABUTH (Abutilon theophrasti; 80 g a.i./ha) | Herbicidal action against [%] AMARE (Amaranthus retroflexus; 20 g a.i./ha) | Herbicidal action against [%] AMARE (Amaranthus retroflexus; [1]) | Herbicidal action against [%] MATIN (Matricaria inodora; 20 g a.i./ha) | Herbicidal action against [%] MATIN (Matricaria inodora; [1]) | Herbicidal action against [%] PHBPU (Pharbitis purpurea; 20 g a.i./ha) | Herbicidal action against [%] PHBPU (Pharbitis purpurea; 80 g a.i./ha) | Herbicidal action against [%] POLCO (Polygonum convolvulus; 20 g a.i./ha) | Herbicidal action against [%] POLCO (Polygonum convolvulus; 80 g a.i./ha) | Herbicidal action against [%] STEME (Stellaria media; 20 g a.i./ha) | Herbicidal action against [%] VIOTR (Viola tricolor; 20 g a.i./ha) | Herbicidal action against [%] VIOTR (Viola tricolor; 80 g a.i./ha) | Herbicidal action against [%] VERPE (Veronica persica; 20 g a.i./ha) | Herbicidal action against [%] VERPE (Veronica persica; 80 g a.i./ha)
100%: Herbicidal action against [%] AVEFA (Avena fatua; 20 g a.i./ha) | Herbicidal action against [%] AVEFA (Avena fatua; 80 g a.i./ha) | Herbicidal action against [%] LOLRI (Lolium rigidum; 20 g a.i./ha) | Herbicidal action against [%] LOLRI (Lolium rigidum; 80 g a.i./ha)

CSCCOC(=O)C1C=CC(NC(=O)C2(C(F)(F)F)CC(c3cccc(C#N)c3)=NO2)C1 (mixture of isomers) [Example I-44]
90%: Herbicidal action against [%] ALOMY (Alopecurus myosuroides; 20 g a.i./ha) | Herbicidal action against [%] ALOMY (Alopecurus myosuroides; 80 g a.i./ha) | Herbicidal action against [%] AVEFA (Avena fatua; 80 g a.i./ha) | Herbicidal action against [%] DIGSA (DIGSA; 20 g a.i./ha) | Herbicidal action against [%] DIGSA (DIGSA; 80 g a.i./ha) | Herbicidal action against [%] LOLRI (Lolium rigidum; 20 g a.i./ha) | Herbicidal action against [%] LOLRI (Lolium rigidum; 80 g a.i./ha) | Herbicidal action against [%] SETVI (Setaria viridis; 80 g a.i./ha) | Herbicidal action against [%] POLCO (Polygonum convolvulus; 80 g a.i./ha) | Herbicidal action against [%] STEME (Stellaria media; 80 g a.i./ha) | Herbicidal action against [%] VIOTR (Viola tricolor; 80 g a.i./ha) | Herbicidal action against [%] VERPE (Veronica persica; 20 g a.i./ha) | Herbicidal action against [%] VERPE (Veronica persica; 80 g a.i./ha)
80%: Herbicidal action against [%] AVEFA (Avena fatua; 20 g a.i./ha) | Herbicidal action against [%] ECHCG (Echinochloa crus-galli; 20 g a.i./ha) | Herbicidal action against [%] ECHCG (Echinochloa crus-galli; 80 g a.i./ha) | Herbicidal action against [%] SETVI (Setaria viridis; 20 g a.i./ha) | Herbicidal action against [%] ABUTH (Abutilon theophrasti; 80 g a.i./ha) | Herbicidal action against [%] AMARE (Amaranthus retroflexus; 20 g a.i./ha) | Herbicidal action against [%] AMARE (Amaranthus retroflexus; [1]) | Herbicidal action against [%] MATIN (Matricaria inodora; [1]) | Herbicidal action against [%] PHBPU (Pharbitis purpurea; 80 g a.i./ha) | Herbicidal action against [%] POLCO (Polygonum convolvulus; 20 g a.i./ha) | Herbicidal action against [%] HORMU (Hordeum murinum; 20 g a.i./ha) | Herbicidal action against [%] HORMU (Hordeum murinum; 80 g a.i./ha)

C=CC1(C(=O)NC2C=CC(C(=O)OCCSC)C2)CC(c2cc(F)cc(F)c2)=NO1 (centres unmarked) [Example I-18]
90%: Herbicidal action against [%] AVEFA (Avena fatua; 20 g a.i./ha) | Herbicidal action against [%] DIGSA (DIGSA; 20 g a.i./ha) | Herbicidal action against [%] DIGSA (DIGSA; 80 g a.i./ha) | Herbicidal action against [%] ECHCG (Echinochloa crus-galli; 20 g a.i./ha) | Herbicidal action against [%] ECHCG (Echinochloa crus-galli; 80 g a.i./ha) | Herbicidal action against [%] LOLRI (Lolium rigidum; 20 g a.i./ha) | Herbicidal action against [%] LOLRI (Lolium rigidum; 80 g a.i./ha) | Herbicidal action against [%] ABUTH (Abutilon theophrasti; 20 g a.i./ha) | Herbicidal action against [%] ABUTH (Abutilon theophrasti; 80 g a.i./ha) | Herbicidal action against [%] AMARE (Amaranthus retroflexus; 20 g a.i./ha) | Herbicidal action against [%] AMARE (Amaranthus retroflexus; [1]) | Herbicidal action against [%] MATIN (Matricaria inodora; 20 g a.i./ha) | Herbicidal action against [%] MATIN (Matricaria inodora; [1]) | Herbicidal action against [%] POLCO (Polygonum convolvulus; 20 g a.i./ha) | Herbicidal action against [%] POLCO (Polygonum convolvulus; 80 g a.i./ha) | Herbicidal action against [%] STEME (Stellaria media; 20 g a.i./ha) | Herbicidal action against [%] STEME (Stellaria media; 80 g a.i./ha) | Herbicidal action against [%] VIOTR (Viola tricolor; 20 g a.i./ha) | Herbicidal action against [%] VERPE (Veronica persica; 20 g a.i./ha) | Herbicidal action against [%] VERPE (Veronica persica; 80 g a.i./ha)
100%: Herbicidal action against [%] ALOMY (Alopecurus myosuroides; 20 g a.i./ha) | Herbicidal action against [%] ALOMY (Alopecurus myosuroides; 80 g a.i./ha) | Herbicidal action against [%] AVEFA (Avena fatua; 80 g a.i./ha) | Herbicidal action against [%] HORMU (Hordeum murinum; 20 g a.i./ha) | Herbicidal action against [%] HORMU (Hordeum murinum; 80 g a.i./ha)
80%: Herbicidal action against [%] SETVI (Setaria viridis; 20 g a.i./ha) | Herbicidal action against [%] SETVI (Setaria viridis; 80 g a.i./ha) | Herbicidal action against [%] PHBPU (Pharbitis purpurea; 20 g a.i./ha) | Herbicidal action against [%] PHBPU (Pharbitis purpurea; 80 g a.i./ha) | Herbicidal action against [%] VIOTR (Viola tricolor; 80 g a.i./ha)

From US12185723B2, “Herbicidally active 3-phenylisoxazoline-5-carboxamides of s-containing cyclopentenylcarboxylic esters” (Bayer Aktiengesellschaft, priority 2019, dated 2025)
